Experimental data as given in patent US12473305B2, “Pyrazole boronic acid compound, pharmaceutical composition containing same, and uses thereof” (BEIJING SONGRUN PHARMACEUTICAL TECHNOLOGY CO., LTD., priority 2020, dated 2025).

Assays:
[1] = tested on: non-small cell lung cancer cell line A549; experiment: CellTiter-Glo tumor cell proliferation, A549; assay type: cell-based, human; conditions: 72 h; for inhibition at 1 µM / inhibition at 10 µM: read-out: Inhibition rate A549 (%); for IC50: CellTiter-Glo
Experimental: (§1) The effect of compounds on tumor cell proliferation was detected by CellTiter-Glo method. Human melanoma cell line A375, non-small cell lung cancer cell line A549, human lung adenocarcinoma cell line H1299, colorectal cancer cell line HCT116, liver cancer cell line HepG2 and gastric cancer cell line MGC80-3 were cultured in vitro. The cells were collected after growing to the logarithmic growth phase, centrifuged at 1000 rpm for 5 min, and suspended in an appropriate amount of medium after discarding the supernatant, and the cell concentration was adjusted to 2×10^4/mL. The cell suspension was inoculated onto the 384-well cell culture plate, with 50 μL per well. After being cultured in a cell incubator (37° C., 5% CO2) for 24 h, 5 μL of drug diluted by the cell culture medium was added into each well for the treatment group. Each drug was provided in triplicate. After 72 h incubation in the incubator, 20 μL of CellTiter-Glo was added into each well, and the relative luminescence unit (RLU) was measured with Multimode Microplate Reader Varioskan Flash (Thermo Scientific, USA) after placed at 37° C. for 20 min, and compared with the RLU of the control group. SigmaPlot 10.0 software was used to calculate the inhibition rate and IC50 value.

[2] = tested on: Human melanoma cell line A375; experiment: CellTiter-Glo tumor cell proliferation, A375; assay type: cell-based; conditions: 72 h; for inhibition at 1 µM / inhibition at 10 µM: read-out: Inhibition rate A375 (%); for IC50: CellTiter-Glo
Experimental: as §1

[3] = tested on: colorectal cancer cell line HCT116; experiment: CellTiter-Glo tumor cell proliferation, HCT116; assay type: cell-based, human; conditions: 72 h; for inhibition at 1 µM / inhibition at 10 µM: read-out: Inhibition rate HCT116 (%); for IC50: CellTiter-Glo
Experimental: as §1

| SMILES | inhibition at 1 µM ([1]; Homo sapiens, A549) | inhibition at 10 µM ([1]; Homo sapiens, A549) | inhibition at 1 µM ([2]; Homo sapiens, A-375) | inhibition at 10 µM ([2]; Homo sapiens, A-375) | inhibition at 1 µM ([3]; Homo sapiens, HCT-116) | inhibition at 10 µM ([3]; Homo sapiens, HCT-116) | IC50 ([1]; Homo sapiens, A549) | IC50 ([2]; Homo sapiens, A-375) | IC50 ([3]; Homo sapiens, HCT-116) | IC50 [1] | IC50 [2] | IC50 [3] |
| --- | --- | --- | --- | --- | --- | --- | --- | --- | --- | --- | --- | --- |
| CC(C)[C@H](NC(=O)Cn1nc(-c2ccccc2OS(=O)(=O)c2cccc(C(F)(F)F)c2)cc1-c1ccccc1Br)B(O)O [Compound 15, (R)-(1-(2-(5-(2-bromophenyl)-3-(2-(((3-trifluoromethylphenyl)sulfonyl)oxy)phenyl)-1H-pyrazol-1-yl)acetamido)isobutyl)boronic acid] | 7.5% | 1.5% | 3% | 67.2% | 5% | 3.6% | – | – | – | – | – | – |
| Cc1ccc(-c2cc(-c3ccccc3OS(=O)(=O)c3cccc(C(F)(F)F)c3)nn2CC(=O)N[C@H](B(O)O)C(C)C)cc1 [Compound 20, (R)-(1-(2-(5-(4-methyl-phenyl)-3-(2-(((3-trifluoromethylphenyl)sulfonyl)oxy)phenyl)-1H-pyrazol-1-yl)acetamido)isobutyl)boronic acid] | 1.2% | 4.2% | 11.5% | 61.9% | 9.2% | 85.1% | – | – | – | – | – | – |
| CC(C)C[C@H](NC(=O)Cn1nc(-c2cccc(OS(=O)(=O)c3cccc(C(F)(F)F)c3)c2)cc1-c1ccccc1)B(O)O [Compound 11, (R)-(3-methyl-1-(2-(5-phenyl-3-(3-(((3-(trifluoromethyl)phenyl)sulfonyl)oxy)phenyl)-1H-pyrazol-1-yl)acetamido)butyl)boronic acid] | 63.4% | 90.3% | 90.2% | 98.8% | 95.4% | 98.4% | 1.06 µM | 2.6 µM | 0.7 µM | – | – | – |
| CC(C)C[C@H](NC(=O)Cn1nc(-c2ccc(OS(=O)(=O)c3cccc(C(F)(F)F)c3)cc2)cc1-c1ccccc1)B(O)O [Compound 12, (R)-(3-methyl-1-(2-(5-phenyl-3-(4-(((3-(trifluoromethyl)phenyl)sulfonyl)oxy)phenyl)-1H-pyrazol-1-yl)acetamido)butyl)boronic acid] | 45.5% | 85.3% | 83% | 98.7% | 45.8% | 96.3% | – | – | – | – | – | – |
| CC(C)C[C@H](NC(=O)Cn1nc(-c2cccc(OS(=O)(=O)c3cccc(C(F)(F)F)c3)c2)cc1-c1ccccc1)B(O)O [Compound 28] | – | – | – | – | – | – | – | – | – | 8.68 µM | 8.25 µM | 3.41 µM |
| CC(C)C[C@H](NC(=O)Cn1nc(-c2ccccc2OS(=O)(=O)c2cccc(C(F)(F)F)c2)cc1-c1ccc(C#N)cc1)B(O)O [Compound 18, (R)-(1-(2-(5-(4-cyanophenyl)-3-(2-(((3-(trifluoromethyl)phenyl)sulfonyl)oxy)phenyl)-1H-pyrazol-1-yl)acetamido)-3-methylbutyl)boronic acid] | 7.1% | 29% | 4.6% | 81.1% | 5.5% | 89.7% | – | – | – | – | – | – |
| CC(C)C[C@H](NC(=O)Cn1nc(-c2ccccc2OS(=O)(=O)c2cccc(C(F)(F)F)c2)cc1-c1ccc(Cl)cc1)B(O)O [Compound 17, (R)-(1-(2-(5-(4-chlorophenyl)-3-(2-(((3-(trifluoromethyl)phenyl)sulfonyl)oxy)phenyl)-1H-pyrazol-1-yl)acetamido)-3-methylbutyl)boronic acid] | 0.3% | 1.9% | 8.3% | 56.1% | 13.6% | 70.6% | – | – | – | – | – | – |
| CC(C)C[C@H](NC(=O)Cn1nc(-c2ccccc2OS(=O)(=O)c2cc(Cl)ccc2Cl)cc1-c1ccccc1)B(O)O [Compound 7, (R)-(1-(2-(3-(2-(((2,5-dichlorophenyl)sulfonyl)oxy)phenyl)-5-phenyl-1H-pyrazol-1-yl)-acetamido)-3-methylbutyl)boronic acid] | 16.5% | 52% | 3.7% | 96% | 3.5% | 96.6% | – | – | – | – | – | – |
| CC(C)C[C@H](NC(=O)Cn1nc(-c2ccccc2OS(=O)(=O)c2ccc(C(F)(F)F)cc2)cc1-c1ccccc1)B(O)O [Compound 2, (R)-(3-methyl-1-(2-(5-phenyl-3-(2-(((4-(trifluoromethyl)phenyl)sulfonyl)oxy)phenyl)-1H-pyrazol-1-yl)acetamido)butyl)boronic acid] | 15.1% | 61.7% | 8.6% | 97.8% | 1.4% | 97.9% | – | – | – | – | – | – |
| CC(C)C[C@H](NC(=O)Cn1nc(-c2ccccc2OS(=O)(=O)c2cccc(C(F)(F)F)c2)cc1-c1cccc(Br)c1)B(O)O [Compound 14, (R)-(1-(2-(5-(3-bromophenyl)-3-(2-(((3-(trifluoromethyl)phenyl)sulfonyl)oxy)phenyl)-1H-pyrazol-1-yl)acetamido)-3-methylbutyl)boronic acid] | 10.8% | 8% | 16.5% | 50.4% | 9.9% | 9.2% | – | – | – | – | – | – |
| CC(C)C[C@H](NC(=O)Cn1nc(-c2ccccc2OS(=O)(=O)c2cccs2)cc1-c1ccccc1)B(O)O [Compound 9, (R)-(3-methyl-1-(2-(5-phenyl-3-(2-((thiophen-2-ylsulfonyl)oxy)phenyl)-1H-pyrazol-1-yl)acetamido)butyl)boronic acid] | 3.6% | 83.2% | 4.6% | 98.3% | 2.9% | 98.3% | – | – | – | – | – | – |
| CC(C)C[C@H](NC(=O)Cn1nc(-c2ccccc2OS(=O)(=O)c2cccc(C(F)(F)F)c2)cc1-c1ccc(OCc2ccccc2)cc1)B(O)O [Compound 23, (R)-(1-(2-(5-(4-(benzyloxy)phenyl)-3-(2-(((3-(trifluoromethyl)phenyl)sulfonyl)oxy)phenyl)-1H-pyrazol-1-yl)acetamido)-3-methylbutyl)boronic acid] | 7.4% | 63.4% | 5.7% | 77% | 2.6% | 55.6% | – | – | – | – | – | – |
| CC(C)C[C@H](NC(=O)Cn1nc(-c2ccccc2OS(=O)(=O)c2cccc(Br)c2)cc1-c1ccccc1)B(O)O [Compound 6, (R)-(1-(2-(3-(2-(((3-bromophenyl)sulfonyl)oxy)phenyl)-5-phenyl-1H-pyrazol-1-yl)-acetamido)-3-methylbutyl)boronic acid] | 13.3% | 64.7% | 7% | 95% | 5.9% | 97% | – | – | – | – | – | – |
| Cc1cccc(S(=O)(=O)Oc2ccccc2-c2cc(-c3ccccc3)n(CC(=O)N[C@@H](CC(C)C)B(O)O)n2)c1 [Compound 8, (R)-(3-methyl-1-(2-(5-phenyl-3-(2-((m-tolylsulfonyl)oxy)phenyl)-1H-pyrazol-1-yl)acetamido)butyl)boronic acid] | 2.9% | 73.4% | 1.8% | 98.9% | 2.1% | 98.5% | – | – | – | – | – | – |
